Measurements published in patent US6989435B2, “Compounds and methods to inhibit or augment an inflammatory response” (Cambridge University Technical Services Ltd., priority 1997, dated 2006).

Columns and labels:
[1] = tested on: MCP-1 induced THP-1 migration; test: Trans-well THP-1 migration assay, MCP-1 as chemoattractant; assay type: cell-based, human; conditions: concentrations above 50 μM
Description: FIG. 1 is a schematic of the trans-well migration assay. In most experiments, the peptide (wavy line) is added to the upper well with about 50,000 cells (O). The upper and lower wells are separated by a 5 μm or 8 μm pore size PVP-free membrane (- - - -). Chemokine (●) is added to the lower well. After 4 hours, the number of cells that have migrated through the membrane are measured (◯ in lower well).
To determine whether an agent inhibits a chemokine-induced activity, such as macrophage recruitment, varying amounts of the agent are mixed with cells in the presence of a known chemoattractant. For example, a range of known concentrations of an agent, e.g., a chemokine peptide, is incubated with a defined number (e.g., 10^4-10^6) of human THP-1 monocyte cells in individual wells of the top compartment of a trans-well plate. Chemokine (such as MCP-1, MIP1α, IL8 or SDF-1α), at a concentration known to cause significant migration of THP-1 cells in the trans-well migration assay, is placed in the lower compartment (FIG. 1). Cells are then incubated at 37° C. for a period sufficient to allow migration, e.g., 4 hours. After incubation, the cells are gently removed from the top of the filter with a pipette, 20 μl of 20 mM EDTA in simple PBS is added into each top well, and incubated for 20 minutes at 4° C. The filter is carefully flushed with media using a gentle flow, and removed. A standard curve consisting of a two-fold dilution series of THP-1 cells (in 29 μl) is prepared to accurately quantify the number of cells that have migrated. Migrated cells are stained with 3 μl of MTT stock dye solution which is added directly into each well (5 mg/ml in RPMI-1640 without phenol red, Sigma Chemical Co.) and incubated at 37° C. for 4 hours. The media is carefully aspirated from each well, and the converted dye is solubilized by 20 μl of DMSO. Absorbance of converted dye is measured at a wavelength of 595 nm using an ELISA plate reader. The number of migrated cells in each well is then determined by interpolation of the standard curve (see also Imai et al., J. Biol. Chem., 272, 15036 (1997)).
Any method suitable for counting cells can be used, for example, counting with a hemocytometer, incubation of the cells with MTT (see above), or FACS analysis. A negative control assay is also performed, using TGF-β or another non-chemokine chemoattractant (e.g., IL1β or TNFα). To assess whether the agent is cytotoxic, the same concentrations of agent are incubated with THP-1 cells. Agents which 1) are not cytotoxic at levels which inhibit migration, 2) are ineffective at inhibiting the negative control-induced migration, and 3) reduce or inhibit chemokine-induced THP-1 migration, are agents which fall within the scope of the invention.
For this assay, THP-1 cells were maintained at a density of 4×10^5 cells per ml in RPMI-1640 supplemented with 10% fetal calf serum+20 μM 2-mercaptoethanol. Chemotaxis was induced in a 96-well disposable chemotaxis chamber fitted with a […] polycarbonate filter (PVP free, ChemoTX, Neuroprobe Inc., Cabin John). Twenty-nine μl of chemoattractant (recombinant human chemokine; 50 ng/ml, i.e., 5.9 nM) or control (100 ng/ml TGFβ) was added to the lower compartment of each well. The framed filter was aligned with the holes in the corner of the filter frame and placed over the wells. Five×10^4 THP-1 cells in 25 μl of RPMI-1640 culture media were added to the upper compartment. Peptides were dissolved in Milli Q water and then serially diluted in culture medium. In most cases, the serially diluted peptides were added to the upper compartment of the chemotaxis chamber. The chamber was incubated at 37° C. in a humidified atmosphere of 5% CO2 for 4 hours.
After incubation, the cells were gently removed from the top of the filter with a pipette, 20 μl of 20 mM EDTA in PBS was added into each top well, and the mixture was incubated for 20 minutes at 4° C. The filter was then carefully flushed with media using a gentle flow, and removed. […]

[2] = molecular target: T1, Duffy Antigen Receptor for Chemokines (DARC) (Homo sapiens, UniProt Q16570); test: DARC binding: competition with 125I-labeled MCP-1 on red blood cells
T1 sequence (Q16570 1-336): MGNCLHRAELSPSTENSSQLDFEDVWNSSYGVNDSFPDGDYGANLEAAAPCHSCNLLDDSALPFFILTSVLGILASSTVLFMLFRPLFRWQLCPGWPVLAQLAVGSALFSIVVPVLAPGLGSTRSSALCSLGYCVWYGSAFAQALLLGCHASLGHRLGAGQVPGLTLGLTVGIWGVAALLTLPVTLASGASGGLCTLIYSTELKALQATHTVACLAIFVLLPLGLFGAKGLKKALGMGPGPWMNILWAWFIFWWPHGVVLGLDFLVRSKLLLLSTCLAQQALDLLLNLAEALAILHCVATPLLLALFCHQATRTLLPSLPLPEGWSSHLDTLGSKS

EICADPKQKWVQ [Peptide 3]
effect on MCP-1 induced THP-1 migration at concentrations above 50 μM [1]: abolished all of the MCP-1 induced THP-1 migration | DARC binding, in words [2]: low μM concentration range | DUFFY SELECTIVITY ([2]; Table 7, estimated ka for binding to red blood cells divided by average inhibitory ED50 versus each of the chemokines): 1.00
